Test [1] deals with Protein kinase C beta type (Homo sapiens) (UniProt P05771). The experiment in a line: Inhibition of human recombinant PKCb at 40 nM related to control ULK1.
Test [2] addresses T1, Serine/threonine-protein kinase Sgk1 (Homo sapiens) (UniProt O00141).
T1 sequence (whole entry): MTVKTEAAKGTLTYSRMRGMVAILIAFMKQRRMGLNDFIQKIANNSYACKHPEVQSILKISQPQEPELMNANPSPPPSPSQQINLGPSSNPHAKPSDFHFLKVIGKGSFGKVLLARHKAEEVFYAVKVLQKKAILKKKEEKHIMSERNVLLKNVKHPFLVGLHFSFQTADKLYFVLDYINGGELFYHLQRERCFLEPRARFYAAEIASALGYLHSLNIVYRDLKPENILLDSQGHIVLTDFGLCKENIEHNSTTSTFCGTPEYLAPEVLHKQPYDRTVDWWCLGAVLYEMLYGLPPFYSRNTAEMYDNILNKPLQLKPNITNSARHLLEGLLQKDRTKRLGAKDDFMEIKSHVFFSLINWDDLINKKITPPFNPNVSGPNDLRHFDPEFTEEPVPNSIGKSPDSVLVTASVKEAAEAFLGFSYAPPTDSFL
The experiment in a line: Inhibition of human recombinant SGK1 at 500 nM in presence of ATP by radiometric assay relative to control.

In test [3] the target is Epidermal growth factor receptor (Homo sapiens) (UniProt P00533). The experiment in a line: Inhibition of human recombinant EGFR at 500 nM related to control ULK1.
Epidermal growth factor receptor (Homo sapiens), sequence (P00533 whole entry): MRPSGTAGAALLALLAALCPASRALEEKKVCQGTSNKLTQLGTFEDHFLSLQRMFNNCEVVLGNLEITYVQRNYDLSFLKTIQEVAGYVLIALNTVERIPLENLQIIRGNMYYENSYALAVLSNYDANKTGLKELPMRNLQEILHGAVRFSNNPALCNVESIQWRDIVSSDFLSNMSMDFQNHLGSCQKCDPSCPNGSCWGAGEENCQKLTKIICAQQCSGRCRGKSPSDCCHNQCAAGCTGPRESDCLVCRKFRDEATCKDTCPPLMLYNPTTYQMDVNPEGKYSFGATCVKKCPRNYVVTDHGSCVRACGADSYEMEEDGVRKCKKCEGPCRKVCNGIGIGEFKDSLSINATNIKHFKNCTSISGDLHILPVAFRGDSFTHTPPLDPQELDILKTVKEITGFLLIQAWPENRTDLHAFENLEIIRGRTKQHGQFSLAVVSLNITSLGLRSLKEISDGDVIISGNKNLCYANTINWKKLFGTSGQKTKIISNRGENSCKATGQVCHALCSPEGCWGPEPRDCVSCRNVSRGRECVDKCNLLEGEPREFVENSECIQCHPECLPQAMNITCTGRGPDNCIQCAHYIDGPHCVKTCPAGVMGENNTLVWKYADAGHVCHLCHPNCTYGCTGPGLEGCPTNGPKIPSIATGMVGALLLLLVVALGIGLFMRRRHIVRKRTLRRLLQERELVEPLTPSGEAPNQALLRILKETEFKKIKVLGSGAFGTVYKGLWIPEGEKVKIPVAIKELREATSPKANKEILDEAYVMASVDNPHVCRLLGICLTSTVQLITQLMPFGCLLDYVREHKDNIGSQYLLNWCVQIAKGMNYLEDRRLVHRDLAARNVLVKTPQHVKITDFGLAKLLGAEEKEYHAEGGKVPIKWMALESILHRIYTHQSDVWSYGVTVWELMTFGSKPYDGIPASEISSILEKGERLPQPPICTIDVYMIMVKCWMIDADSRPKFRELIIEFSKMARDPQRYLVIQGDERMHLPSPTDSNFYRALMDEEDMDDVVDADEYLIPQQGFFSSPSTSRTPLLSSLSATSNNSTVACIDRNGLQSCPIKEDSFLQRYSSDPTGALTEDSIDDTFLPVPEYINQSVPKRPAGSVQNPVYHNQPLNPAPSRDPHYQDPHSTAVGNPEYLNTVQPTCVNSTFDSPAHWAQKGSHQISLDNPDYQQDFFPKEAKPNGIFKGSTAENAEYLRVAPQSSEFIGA
The target of test [4] is Fibroblast growth factor receptor 1 (Homo sapiens) (UniProt P11362). As to the kind of experiment: Inhibition of human recombinant FGFR1 at 500 nM related to control ULK1.
Fibroblast growth factor receptor 1 (Homo sapiens), sequence (P11362 22-822 limits assumed): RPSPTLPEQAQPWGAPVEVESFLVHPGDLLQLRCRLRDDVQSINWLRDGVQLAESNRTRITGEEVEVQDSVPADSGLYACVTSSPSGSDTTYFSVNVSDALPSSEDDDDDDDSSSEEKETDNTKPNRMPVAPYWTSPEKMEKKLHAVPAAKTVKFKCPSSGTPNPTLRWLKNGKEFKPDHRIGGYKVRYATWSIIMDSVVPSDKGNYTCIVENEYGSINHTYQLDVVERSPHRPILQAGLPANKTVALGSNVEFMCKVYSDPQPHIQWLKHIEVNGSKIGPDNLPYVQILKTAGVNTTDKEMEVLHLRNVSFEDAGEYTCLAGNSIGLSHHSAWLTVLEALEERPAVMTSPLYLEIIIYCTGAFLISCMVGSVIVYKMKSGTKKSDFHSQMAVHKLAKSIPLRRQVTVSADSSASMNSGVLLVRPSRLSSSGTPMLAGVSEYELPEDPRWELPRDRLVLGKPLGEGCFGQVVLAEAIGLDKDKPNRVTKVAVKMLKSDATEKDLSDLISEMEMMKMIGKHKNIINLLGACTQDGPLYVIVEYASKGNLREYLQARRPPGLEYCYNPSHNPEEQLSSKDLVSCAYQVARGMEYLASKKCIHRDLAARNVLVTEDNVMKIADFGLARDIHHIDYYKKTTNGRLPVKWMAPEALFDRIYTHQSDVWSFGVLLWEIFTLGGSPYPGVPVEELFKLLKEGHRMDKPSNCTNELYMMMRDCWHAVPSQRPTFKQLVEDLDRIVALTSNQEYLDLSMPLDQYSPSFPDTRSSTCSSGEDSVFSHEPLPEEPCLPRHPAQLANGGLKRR
For test [5], the target named is Mitogen-activated protein kinase 10 (Homo sapiens) (UniProt P53779). As to the kind of experiment: Inhibition of human recombinant JNK3 at 500 nM related to control ULK1.
Mitogen-activated protein kinase 10 (Homo sapiens), sequence (P53779 whole entry): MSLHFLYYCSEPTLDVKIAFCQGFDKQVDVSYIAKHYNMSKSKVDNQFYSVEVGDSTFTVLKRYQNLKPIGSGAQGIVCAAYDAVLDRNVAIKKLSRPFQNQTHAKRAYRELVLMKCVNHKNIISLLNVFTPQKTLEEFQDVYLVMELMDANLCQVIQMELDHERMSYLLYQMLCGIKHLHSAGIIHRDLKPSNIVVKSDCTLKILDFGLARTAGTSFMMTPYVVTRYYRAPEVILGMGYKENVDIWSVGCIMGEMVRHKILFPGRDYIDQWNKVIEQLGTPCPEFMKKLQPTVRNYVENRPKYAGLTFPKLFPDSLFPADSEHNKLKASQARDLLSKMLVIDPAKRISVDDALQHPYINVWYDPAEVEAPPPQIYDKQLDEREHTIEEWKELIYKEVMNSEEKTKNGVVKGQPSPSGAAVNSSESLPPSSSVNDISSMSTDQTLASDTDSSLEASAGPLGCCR
For test [6], the target named is T2, Dual specificity tyrosine-phosphorylation-regulated kinase 2 (Homo sapiens) (UniProt Q92630).
T2 sequence (whole entry): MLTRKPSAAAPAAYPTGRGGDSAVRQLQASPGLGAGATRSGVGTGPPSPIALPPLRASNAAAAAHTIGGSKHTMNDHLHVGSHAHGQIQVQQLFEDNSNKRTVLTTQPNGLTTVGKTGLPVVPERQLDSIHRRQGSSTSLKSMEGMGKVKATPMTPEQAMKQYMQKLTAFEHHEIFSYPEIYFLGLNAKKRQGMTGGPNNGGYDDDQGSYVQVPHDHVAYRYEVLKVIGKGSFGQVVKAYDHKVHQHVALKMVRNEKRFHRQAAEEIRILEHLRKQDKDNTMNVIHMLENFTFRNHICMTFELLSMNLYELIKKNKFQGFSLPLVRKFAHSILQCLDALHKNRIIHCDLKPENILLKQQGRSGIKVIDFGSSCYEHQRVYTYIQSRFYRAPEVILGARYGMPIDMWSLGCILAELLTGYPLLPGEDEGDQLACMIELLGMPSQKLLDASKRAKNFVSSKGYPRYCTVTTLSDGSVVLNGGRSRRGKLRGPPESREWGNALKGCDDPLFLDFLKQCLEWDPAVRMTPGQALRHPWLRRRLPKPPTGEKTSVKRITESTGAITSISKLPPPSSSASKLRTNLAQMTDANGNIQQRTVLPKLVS
As to the kind of experiment: Inhibition of human recombinant DYRK2 at 15 nM in presence of ATP by radiometric assay relative to control.

The target in test [7] is T3, MAP/microtubule affinity-regulating kinase 4 (Homo sapiens) (UniProt Q96L34).
T3 sequence (whole entry): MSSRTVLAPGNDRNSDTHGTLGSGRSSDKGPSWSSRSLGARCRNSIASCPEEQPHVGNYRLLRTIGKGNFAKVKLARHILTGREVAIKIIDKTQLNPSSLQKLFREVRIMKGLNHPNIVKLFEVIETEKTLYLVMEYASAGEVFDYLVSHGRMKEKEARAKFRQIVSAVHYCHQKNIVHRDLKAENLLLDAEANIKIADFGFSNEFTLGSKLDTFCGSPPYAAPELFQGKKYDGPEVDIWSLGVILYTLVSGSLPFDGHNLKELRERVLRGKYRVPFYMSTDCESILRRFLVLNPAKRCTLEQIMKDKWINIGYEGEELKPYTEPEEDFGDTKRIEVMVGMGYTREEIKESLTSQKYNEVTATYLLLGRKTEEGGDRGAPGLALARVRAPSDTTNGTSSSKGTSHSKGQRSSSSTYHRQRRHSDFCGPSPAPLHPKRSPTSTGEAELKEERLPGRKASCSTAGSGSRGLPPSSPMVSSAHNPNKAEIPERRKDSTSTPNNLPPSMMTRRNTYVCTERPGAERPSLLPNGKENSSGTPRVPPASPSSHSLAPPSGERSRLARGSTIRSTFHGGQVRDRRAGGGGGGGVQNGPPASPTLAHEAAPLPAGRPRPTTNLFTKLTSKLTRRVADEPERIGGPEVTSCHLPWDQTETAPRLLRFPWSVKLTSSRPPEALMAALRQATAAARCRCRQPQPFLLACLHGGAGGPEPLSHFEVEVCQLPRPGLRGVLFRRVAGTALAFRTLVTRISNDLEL
The experiment in a line: Inhibition of human recombinant MARK4 at 15 nM related to control ULK1.

Protein kinase C beta type (Homo sapiens), sequence (P05771 2-671 limits assumed): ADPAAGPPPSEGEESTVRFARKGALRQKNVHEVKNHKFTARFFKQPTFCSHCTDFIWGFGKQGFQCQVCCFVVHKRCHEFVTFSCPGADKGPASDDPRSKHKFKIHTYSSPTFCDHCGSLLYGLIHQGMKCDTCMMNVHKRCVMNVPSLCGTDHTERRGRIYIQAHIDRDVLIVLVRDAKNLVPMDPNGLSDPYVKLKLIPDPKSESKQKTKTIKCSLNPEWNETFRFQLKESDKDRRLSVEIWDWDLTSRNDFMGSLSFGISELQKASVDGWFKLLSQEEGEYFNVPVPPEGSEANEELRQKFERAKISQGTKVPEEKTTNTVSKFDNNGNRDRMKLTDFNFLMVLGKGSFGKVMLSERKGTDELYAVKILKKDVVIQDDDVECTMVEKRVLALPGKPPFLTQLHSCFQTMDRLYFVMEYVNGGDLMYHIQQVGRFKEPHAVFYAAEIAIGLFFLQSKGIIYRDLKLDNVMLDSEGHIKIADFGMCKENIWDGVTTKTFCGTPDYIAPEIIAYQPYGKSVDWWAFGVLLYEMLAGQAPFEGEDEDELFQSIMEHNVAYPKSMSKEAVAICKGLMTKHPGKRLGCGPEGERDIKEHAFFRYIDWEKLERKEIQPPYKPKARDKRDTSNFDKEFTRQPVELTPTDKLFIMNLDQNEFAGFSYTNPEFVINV

Regarding `O=C(N[C@@H](C1CC1)C(F)(F)F)c1cc(-c2cnn3cc(-c4ccc(F)cc4)cnc23)cs1`, the fold change (FC) in test [1] amounted to 0.04.
For the compound `CNC(=O)c1ccccc1Oc1nc(Nc2cc(OC)c(OC)c(OC)c2)ncc1Br`, in test [2], the inhibition (commonly the share of the control response that was lost under treatment) turned out to be 2%. Also, the results for the fold change (FC) in test [3], in test [4] and in test [5] were 0.04, 0.47 and 0.04, respectively.
With `CC(C)[C@H](NC(=O)c1cc(-c2cnn3cc(-c4ccc(OCCN5CCCCC5)cc4)cnc23)cs1)C(F)(F)F`, the inhibition in test [6] was 8%. Also, the fold change (FC) in test [7] came out at 0.48.
